Tests used:
[1] = system: Hepatitis B virus; experiment: Antiviral activity against HBV infected in human HepDES19 cells assessed as reduction in viral cccDNA level; type: functional, organism-based
[2] = system: Hepatitis B virus; experiment: Antiviral activity against HBV infected in human HepG2.2.15 cells assessed as reduction in viral DNA level after 8 days by dot-blot hybridization assay; type: functional, organism-based; conditions: HepG2.2.15, 192 h

Row | Structure (SMILES) | EC50 [1] [µM] | IC50 [2] [µM]
1 | Cc1nc2cc(NC(=O)c3ccc(S(=O)(=O)N(C)Cc4ccccc4)cc3)ccc2s1 | 3 | –
2 | O=C(CN(c1cc(C(F)(F)F)ccc1Cl)S(=O)(=O)c1ccccc1)NCc1ccncc1 | 10 | –
3 | COC(=O)C1=C(C)NC(c2ncc(F)cc2F)=N[C@H]1c1ccc(F)cc1Cl | – | 0.053
